Target: EGFR (human) (UniProt P00533)
Sequence (P00533 whole entry, looked up): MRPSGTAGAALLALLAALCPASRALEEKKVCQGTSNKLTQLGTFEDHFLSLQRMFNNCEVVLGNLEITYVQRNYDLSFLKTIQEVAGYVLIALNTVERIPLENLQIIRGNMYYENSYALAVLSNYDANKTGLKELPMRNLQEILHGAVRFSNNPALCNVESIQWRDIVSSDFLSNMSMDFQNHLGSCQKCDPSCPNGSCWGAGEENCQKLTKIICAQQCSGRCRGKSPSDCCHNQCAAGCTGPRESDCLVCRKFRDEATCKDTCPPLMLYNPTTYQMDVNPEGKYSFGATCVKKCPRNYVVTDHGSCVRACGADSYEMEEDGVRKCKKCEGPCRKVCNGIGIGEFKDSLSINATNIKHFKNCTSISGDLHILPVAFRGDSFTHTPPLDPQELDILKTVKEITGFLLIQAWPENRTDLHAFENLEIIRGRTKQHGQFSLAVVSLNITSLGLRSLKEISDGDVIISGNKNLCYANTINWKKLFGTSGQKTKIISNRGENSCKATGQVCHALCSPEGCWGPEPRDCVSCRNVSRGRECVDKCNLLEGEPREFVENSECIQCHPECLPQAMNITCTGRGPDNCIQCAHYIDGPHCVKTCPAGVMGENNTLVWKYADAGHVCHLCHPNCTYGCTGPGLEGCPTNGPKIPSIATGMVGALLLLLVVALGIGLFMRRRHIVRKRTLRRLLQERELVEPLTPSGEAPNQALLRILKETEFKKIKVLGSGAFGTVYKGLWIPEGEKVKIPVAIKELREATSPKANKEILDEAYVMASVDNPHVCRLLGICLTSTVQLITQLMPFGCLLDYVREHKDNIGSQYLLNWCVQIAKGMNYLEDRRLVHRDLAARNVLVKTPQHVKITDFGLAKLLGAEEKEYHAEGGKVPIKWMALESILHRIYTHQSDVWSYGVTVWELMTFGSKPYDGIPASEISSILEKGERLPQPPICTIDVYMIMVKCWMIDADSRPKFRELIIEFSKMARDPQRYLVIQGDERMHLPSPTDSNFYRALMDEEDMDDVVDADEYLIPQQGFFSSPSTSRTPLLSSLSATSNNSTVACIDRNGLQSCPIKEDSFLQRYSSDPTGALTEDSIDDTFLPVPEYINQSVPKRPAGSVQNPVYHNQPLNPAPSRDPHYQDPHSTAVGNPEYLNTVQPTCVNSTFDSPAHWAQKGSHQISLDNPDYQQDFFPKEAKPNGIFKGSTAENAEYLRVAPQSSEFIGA

| SMILES | IC50 |
| --- | --- |
| Cc1[nH]c(/C=C2\C(=O)Nc3cccc(-c4ccccc4F)c32)c(C)c1C(=O)N1CCN(C)CC1 | > 20 µM |
| CCN(CC)CCNC(=O)c1c(C)[nH]c(/C=C2\C(=O)Nc3cccc(-c4ccccc4)c32)c1C | > 20 µM |
| Cc1[nH]c(/C=C2\C(=O)Nc3cccc(-c4ccc(Br)cc4)c32)c(C)c1C(=O)N1C[C@@H](C)N[C@@H](C)C1 | > 20 µM |
| COc1cccc(-c2cccc3c2/C(=C/c2[nH]c(C)c(C(=O)NCCn4ccnn4)c2C)C(=O)N3)c1 | > 20 µM |
| Cc1[nH]c(/C=C2\C(=O)Nc3cccc(-c4ccc(Cl)cc4)c32)c(C)c1C(=O)N1CCN(C)CC1 | > 20 µM |
| Cc1[nH]c(/C=C2\C(=O)Nc3cccc(-c4ccc(Br)cc4)c32)c(C)c1C(=O)N1CCN(C)CC1 | > 20 µM |
| Cc1cc(C(=O)NCCN2CCCC2)c(/C=C2\C(=O)Nc3cccc(-c4ccc(Br)cc4)c32)[nH]1 | > 20 µM |
| Cc1cc(C(=O)NCCn2ccnn2)c(/C=C2\C(=O)Nc3cccc(-c4ccccc4F)c32)[nH]1 | > 20 µM |
| CCN(CC)CCNC(=O)c1c(C)[nH]c(/C=C2\C(=O)Nc3cccc(-c4ccc(OC(F)(F)F)cc4)c32)c1C | > 20 µM |
| Cc1cc(C(=O)N2CC[C@H](N(C)C)C2)c(/C=C2\C(=O)Nc3cccc(-c4ccc(F)cc4)c32)[nH]1 | > 20 µM |
| CCN(CC)CCNC(=O)c1c[nH]c(/C=C2\C(=O)Nc3cccc(-c4ccc(Br)cc4)c32)c1C | > 20 µM |
| Cc1cc(C(=O)N2CC[C@@H](N(C)C)C2)c(/C=C2\C(=O)Nc3cccc(-c4ccc(Cl)cc4)c32)[nH]1 | > 20 µM |

Next, values leading:

| IC50 | SMILES |
| --- | --- |
| > 20 µM | Cc1[nH]c(/C=C2\C(=O)Nc3cccc(-c4cccc(F)c4)c32)c(C)c1C(=O)NCCn1ccnn1 |
| > 20 µM | Cc1[nH]c(/C=C2\C(=O)Nc3cccc(-c4ccc(F)cc4)c32)c(C)c1C(=O)N1CCN(C)CC1 |
| > 20 µM | Cc1cc(C(=O)N2C[C@@H](C)N[C@@H](C)C2)c(/C=C2\C(=O)Nc3cccc(-c4cccc(Cl)c4)c32)[nH]1 |
| > 20 µM | Cc1cc(C(=O)NCCN2CCCC2)c(/C=C2\C(=O)Nc3cccc(-c4ccc(F)c(Cl)c4)c32)[nH]1 |
| > 20 µM | CCN(CC)CCNC(=O)c1c(C)[nH]c(/C=C2\C(=O)Nc3cccc(-c4cccc(OC)c4)c32)c1C |
| > 20 µM | COc1ccc(-c2cccc3c2/C(=C/c2[nH]c(C)cc2C(=O)NCCN2CCCC2)C(=O)N3)cc1 |
| > 20 µM | COc1ccc(-c2cccc3c2/C(=C/c2[nH]c(C)c(C(=O)N4C[C@@H](C)N[C@@H](C)C4)c2C)C(=O)N3)cc1 |
| > 20 µM | Cc1cc(C(=O)NCCn2ccnn2)c(/C=C2\C(=O)Nc3cccc(-c4cccc(Cl)c4)c32)[nH]1 |
| > 20 µM | Cc1[nH]c(/C=C2\C(=O)Nc3cccc(-c4cccc(C(F)(F)F)c4)c32)c(C)c1C(=O)N1CCN(C)CC1 |
| > 20 µM | Cc1cc(C(=O)N2CC[C@H](N(C)C)C2)c(/C=C2\C(=O)Nc3cccc(-c4cccc(Cl)c4)c32)[nH]1 |
| > 20 µM | COc1cccc(-c2cccc3c2/C(=C/c2[nH]c(C)c(C(=O)NCCN(C(C)C)C(C)C)c2C)C(=O)N3)c1 |
| > 20 µM | Cc1cc(C(=O)N2C[C@@H](C)N[C@@H](C)C2)c(/C=C2\C(=O)Nc3cccc(-c4ccc(Cl)cc4)c32)[nH]1 |

From the Kinase Knowledgebase extract (Sharma et al. 2016)
